# Reference: patent US9079866B2, “Flap modulators” (JANSSEN PHARMACEUTICA NV, priority 2013, dated 2015)
# Structures can show the parent of a compound that is named as a salt.
# Legend:
# [1] = system: leukotriene pathway in human whole blood (LTB4 levels); experiment: Human whole blood assay (A23187-stimulated LTB4); assay type: cell-based; settings: Homo sapiens, human whole blood diluted 1:1, A23187-stimulated; read-out: LTB4 IC50 1:1
# Outline: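 Compounds are pre-incubated 15 min at 37° Celsius in RPMI-diluted (1:1) heparinised whole blood before a 30 min A23187 stimulus (7 μg/mL). Plasma LTB4 is read by immunoassay kit, with IC50 calculated from a 4-parameter equation.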
# [2] = molecular target: human FLAP (Homo sapiens (Human), UniProt P20292); experiment: FLAP binding assay (HTRF format); settings: wild type FLAP, HTRF format
# Chain of human FLAP (P20292 whole entry): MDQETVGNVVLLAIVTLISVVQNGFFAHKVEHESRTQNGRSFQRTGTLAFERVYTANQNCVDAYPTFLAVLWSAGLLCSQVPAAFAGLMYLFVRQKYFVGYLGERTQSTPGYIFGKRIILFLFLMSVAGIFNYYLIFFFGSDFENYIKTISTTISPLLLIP
# Outline: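 Binding of compounds to FLAP read out as HTRF ratio. Values are the mean of two assay plates, each sample run in duplicate per plate.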
SMILES,IC50 [1] [nM],Ki [2] [nM]
"C[C@@H](O)CNS(=O)(=O)c1ccccc1-c1ccc(-c2cnc(N)nc2)nc1 [Example 689, 2-[6-(2-Aminopyrimidin-5-yl)pyridin-3-yl]-N-[(2R)-2-hydroxypropyl]benzenesulfonamide]",787,485
"Nc1ncc(-c2ccc(-c3ccc(C(F)(F)F)cc3S(=O)(=O)NCCO)cn2)cn1 [Example 690, 2-[6-(2-Aminopyrimidin-5-yl)pyridin-3-yl]-N-(2-hydroxyethyl)-5-(trifluoromethyl)benzenesulfonamide]",118,177
"CCNS(=O)(=O)c1cc(C(F)(F)F)ccc1-c1ccc(-c2cnc(N)nc2)nc1 [Example 692, 2-[6-(2-Aminopyrimidin-5-yl)pyridin-3-yl]-N-ethyl-5-(trifluoromethyl)benzenesulfonamide trifluoroacetic acid salt]",110,53.3
"CC(C)(C)NS(=O)(=O)c1ccccc1-c1ccc(-c2cnc(N)nc2)nc1 [Example 693, 2-[6-(2-Aminopyrimidin-5-yl)pyridin-3-yl]-N-tert-butylbenzenesulfonamide]",103,49.5
"C[C@H](CO)NS(=O)(=O)c1ccccc1-c1ccc(-c2cnc(N)nc2)nc1 [Example 694, 2-[6-(2-Aminopyrimidin-5-yl)pyridin-3-yl]-N-[(1R)-2-hydroxy-1-methylethyl]benzenesulfonamide]",1010,676
"N#Cc1nc(-c2ccc(-c3ccccc3Oc3nccc(N)n3)cc2F)cnc1N [Example 695, 3-Amino-6-{2′-[(4-aminopyrimidin-2-yl)oxy]-3-fluorobiphehenyl-4-yl}pyrazine-2-carbonitrile trifluoroacetic acid salt]",336,8.4
"Nc1cnc(-c2ccc(-c3ccc(Br)cc3F)cc2F)cn1 [Example 696, 5-(4′-Bromo-2′,3-difluorobiphenyl-4-yl)pyrazin-2-amine]",3270,~250
"COc1c(-c2ccc(C(F)(F)F)cc2)ccc(-c2cnc(N)cn2)c1F [Example 698, 5-(3-fluoro-2-methoxy-4′-(trifluoromethyl)-[1,1′-biphenyl]-4-yl)pyrazin-2-amine]",112,8.7
"N#Cc1nc(N)cnc1-c1ccc(-c2ccccc2S(=O)(=O)N2CCS(=O)(=O)CC2)cc1F [Example 704, 6-Amino-3-{2′-[(1,1-dioxidothiomorpholin-4-yl)sulfonyl]-3-fluorobiphenyl-4-yl}pyrazine-2-carbonitrile]",191,102
"CNC(=O)C1CN(S(=O)(=O)c2ccccc2-c2ccc(-c3cnc(N)nc3)c(F)c2)C1 [Example 705, 1-{[4′-(2-Aminopyrimidin-5-yl)-3′-fluorobiphenyl-2-yl]sulfonyl}-N-methylazetidine-3-carboxamide]",289,86.9
"N#Cc1nc(N)cnc1-c1ccc(-c2ccccc2S(=O)(=O)NCCO)cc1F [Example 706, 4′-(5-Amino-3-cyanopyrazin-2-yl)-3′-fluoro-N-(2-hydroxyethyl)biphenyl-2-sulfonamide]",362,79.6
"C[C@H](O)CNS(=O)(=O)c1ccccc1-c1ccc(-c2ncc(N)nc2C#N)c(F)c1 [Example 707, 4′-(5-Amino-3-cyanopyrazin-2-yl)-3′-fluoro-N-[(2S)-2-hydroxypropyl]biphenyl-2-sulfonamide]",127,32.7
"C[C@@H](O)CNS(=O)(=O)c1ccccc1-c1ccc(-c2ncc(N)nc2C#N)c(F)c1 [Example 708, 4′-(5-Amino-3-cyanopyrazin-2-yl)-3′-fluoro-N-[(2R)-2-hydroxypropyl]biphenyl-2-sulfonamide]",142,23.5
"NC(=O)C1CCN(S(=O)(=O)c2ccccc2-c2ccc(-c3cnc(N)nc3)c(F)c2)CC1 [Example 709, 1-((4′-(2-Aminopyrimidin-5-yl)-3′-fluoro-[1,1′-biphenyl]-2-yl)sulfonyl)piperidine-4-carboxamide]",268,5.4
